Reference: the NIST ThermoML archive (doi:10.1016/j.jct.2019.05.023)

Experiment: xn = mol fraction of the nth substance listed
Details: 101.3 kPa, Liquid; for speed of sound: Frequency=3 MHz, Single path-length method; for mass density: Vibrating tube method

CCOCCO [2-ethoxyethan-1-ol] + CCn1cc[n+](C)c1.O=S(=O)([O-])C(F)(F)F
Details | mass density, 298.15 K [kg/m3] | mass density, 303.15 K [kg/m3] | mass density, 308.15 K [kg/m3] | mass density, 313.15 K [kg/m3] | mass density, 318.15 K [kg/m3] | speed of sound, 298.15 K [m/s] | speed of sound, 303.15 K [m/s] | speed of sound, 308.15 K [m/s] | speed of sound, 313.15 K [m/s] | speed of sound, 318.15 K [m/s]
x2 = 0 | 926 | 921 | 917 | 912 | 907 | 1304 | 1287 | 1270 | 1252 | 1234
x2 = 0.067 | 981 | 976 | 971 | 967 | 962 | 1321 | 1305 | 1289 | 1272 | 1256
x2 = 0.133 | 1029 | 1024 | 1020 | 1015 | 1011 | 1333 | 1318 | 1302 | 1286 | 1271
x2 = 0.192 | 1066 | 1062 | 1058 | 1053 | 1049 | 1344 | 1329 | 1314 | 1299 | 1283
x2 = 0.268 | 1112 | 1107 | 1103 | 1099 | 1094 | 1356 | 1342 | 1328 | 1313 | 1299
x2 = 0.35 | 1157 | 1152 | 1148 | 1144 | 1139 | 1369 | 1355 | 1342 | 1328 | 1315
x2 = 0.428 | 1196 | 1191 | 1187 | 1183 | 1178 | 1380 | 1367 | 1354 | 1341 | 1328
x2 = 0.54 | 1245 | 1241 | 1237 | 1233 | 1228 | 1395 | 1383 | 1370 | 1358 | 1346
x2 = 0.609 | 1272 | 1268 | 1264 | 1260 | 1255 | 1403 | 1391 | 1379 | 1368 | 1356
x2 = 0.674 | 1295 | 1291 | 1287 | 1283 | 1278 | 1411 | 1399 | 1387 | 1376 | 1364
x2 = 0.734 | 1314 | 1310 | 1306 | 1302 | 1297 | 1417 | 1406 | 1394 | 1383 | 1372
x2 = 0.799 | 1332 | 1328 | 1324 | 1320 | 1315 | 1424 | 1412 | 1401 | 1390 | 1379
x2 = 0.884 | 1354 | 1350 | 1346 | 1342 | 1337 | 1431 | 1420 | 1409 | 1398 | 1387
x2 = 0.951 | 1371 | 1367 | 1363 | 1359 | 1354 | 1437 | 1425 | 1414 | 1403 | 1392
